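Results reflect a 48-hour exposure of cells in 96-well plates to compound at five concentrations. GI50 is the concentration that inhibits growth by half.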 The source made the active and inactive calls. Rule as the data show it: active = GI50 up to about 1.1 µM and inactive = higher.
Tests used:
Assay in all cases: NCI anticancer screen, dose series, 48 h
[1] = test system: IGROV-1
[2] = test system: XF498
[3] = test system: OVCAR-5
[4] = test system: HT-29
[5] = test system: KM-20L2
[6] = test system: Malme-3M
[7] = test system: SK-MEL-2
[8] = test system: TK-10
[9] = test system: ACHN
[10] = test system: A498
[11] = test system: RXF 393
[12] = test system: A549
[13] = test system: M14
[14] = test system: SK-MEL-28
[15] = test system: SNB-75
[16] = test system: SF-295
[17] = test system: EKVX
[18] = test system: SW-620
[19] = test system: OVCAR-3
[20] = test system: UO-31
[21] = test system: MOLT-4
[22] = test system: DLD-1
[23] = test system: HOP-62
[24] = test system: HL-60
[25] = test system: LXFL 529
[26] = test system: OVCAR-4
[27] = test system: SF-539
[28] = test system: DMS-273
[29] = test system: NCI-H23
[30] = test system: M19-MEL
[31] = test system: U-251
[32] = test system: HCT-116
[33] = test system: DMS-114
[34] = test system: NCI-H226
[35] = test system: SK-MEL-5
[36] = test system: CCRF-CEM
[37] = test system: K562
[38] = test system: UACC-62
[39] = test system: CAKI-1
[40] = test system: RPMI-8226
[41] = test system: SK-OV-3
[42] = test system: NCI-H460
[43] = test system: HCT-15
[44] = test system: SNB-78
[45] = test system: 786-0
[46] = test system: OVCAR-8
[47] = test system: KM12
[48] = test system: UACC-257
[49] = test system: HCC 2998
[50] = test system: COLO 205
[51] = test system: HOP-92
[52] = test system: NCI-H522
[53] = test system: LOX IMVI
[54] = test system: SF-268
[55] = test system: SNB-19
[56] = test system: SN12C
[57] = test system: SR
[58] = test system: MCF7
[59] = test system: NCI/ADR-RES

## CCc1ccc(Nc2ccc([N+](=O)[O-])cc2[N+](=O)[O-])cc1
[1]
  GI50: 97.3 µM (inactive)
[2]
  GI50: > 100 µM (inactive)
[3]
  GI50: > 100 µM (inactive)
[4]
  GI50: 47.3 µM (inactive)
[5]
  GI50: 69.3 µM (inactive)
[6]
  GI50: > 100 µM (inactive)
[7]
  GI50: > 100 µM (inactive)
[8]
  GI50: 73.8 µM (inactive)
[9]
  GI50: > 100 µM (inactive)
[10]
  GI50: 23.7 µM (inactive)
[11]
  GI50: 71.4 µM (inactive)
[12]
  GI50: 40.9 µM (inactive)
[13]
  GI50: > 100 µM (inactive)
[14]
  GI50: > 100 µM (inactive)
[15]
  GI50: 39.7 µM (inactive)
[16]
  GI50: 89.7 µM (inactive)
[17]
  GI50: 75.9 µM (inactive)
[18]
  GI50: > 100 µM (inactive)
[19]
  GI50: 44.4 µM (inactive)
[20]
  GI50: 26.2 µM (inactive)
[21]
  GI50: 19.1 µM (inactive)
[22]
  GI50: > 100 µM (inactive)
[23]
  GI50: > 100 µM (inactive)
[24]
  GI50: 26.8 µM (inactive)
[25]
  GI50: 50.9 µM (inactive)
[26]
  GI50: 34.5 µM (inactive)
[27]
  GI50: > 100 µM (inactive)
[28]
  GI50: 96.6 µM (inactive)
[29]
  GI50: 71.1 µM (inactive)
[30]
  GI50: > 100 µM (inactive)
[31]
  GI50: 77.1 µM (inactive)
[32]
  GI50: 36.7 µM (inactive)
[33]
  GI50: 29.4 µM (inactive)
[34]
  GI50: 34.2 µM (inactive)
[35]
  GI50: 38.6 µM (inactive)
[36]
  GI50: 35.2 µM (inactive)
[37]
  GI50: 29.8 µM (inactive)
[38]
  GI50: 56.6 µM (inactive)
[39]
  GI50: 39.1 µM (inactive)
[40]
  GI50: 39.1 µM (inactive)
[41]
  GI50: > 100 µM (inactive)
[42]
  GI50: 69.2 µM (inactive)
[43]
  GI50: 96.4 µM
[44]
  GI50: 87.3 µM (inactive)
[45]
  GI50: > 100 µM (inactive)
[46]
  GI50: 97.7 µM (inactive)
[47]
  GI50: 52.5 µM (inactive)
[48]
  GI50: 67.8 µM (inactive)
[49]
  GI50: > 100 µM (inactive)

## CCN1CCC(O)(c2ccc(Cl)c(Cl)c2)C(C(=O)c2ccc(Cl)c(Cl)c2)C1 (stereo unspecified)
[1]
  GI50: 20.6 µM (inactive)
[2]
  GI50: 19.2 µM (inactive)
[3]
  GI50: 19.2 µM (inactive)
[4]
  GI50: 18.2 µM (inactive)
[5]
  GI50: 17.9 µM (inactive)
[6]
  GI50: 18.2 µM (inactive)
[50]
  GI50: 16.9 µM (inactive)
[7]
  GI50: 17.3 µM (inactive)
[8]
  GI50: 16.5 µM (inactive)
[9]
  GI50: 13.3 µM (inactive)
[10]
  GI50: 21.5 µM (inactive)
[12]
  GI50: 19.4 µM (inactive)
[13]
  GI50: 16.7 µM (inactive)
[14]
  GI50: 18.2 µM (inactive)
[51]
  GI50: 14.5 µM (inactive)
[15]
  GI50: 14.3 µM (inactive)
[16]
  GI50: 17.6 µM (inactive)
[17]
  GI50: 18.5 µM (inactive)
[18]
  GI50: 19.5 µM (inactive)
[52]
  GI50: 3.71 µM (inactive)
[19]
  GI50: 13.7 µM (inactive)
[20]
  GI50: 17.3 µM (inactive)
[21]
  GI50: 15.1 µM (inactive)
[22]
  GI50: 17.8 µM (inactive)
[53]
  GI50: 17.8 µM (inactive)
[23]
  GI50: 18.3 µM (inactive)
[24]
  GI50: 15.2 µM (inactive)
[25]
  GI50: 16.2 µM (inactive)
[26]
  GI50: 18.3 µM (inactive)
[27]
  GI50: 17.7 µM (inactive)
[28]
  GI50: 18.1 µM (inactive)
[29]
  GI50: 19.7 µM (inactive)
[31]
  GI50: 18 µM (inactive)
[32]
  GI50: 18.5 µM (inactive)
[33]
  GI50: 17.1 µM (inactive)
[34]
  GI50: 21.4 µM (inactive)
[35]
  GI50: 16.9 µM (inactive)
[36]
  GI50: 17.1 µM (inactive)
[54]
  GI50: 18.2 µM (inactive)
[37]
  GI50: 18 µM (inactive)
[38]
  GI50: 17 µM (inactive)
[39]
  GI50: 18.3 µM (inactive)
[40]
  GI50: 1.65 µM (inactive)
[41]
  GI50: 18.2 µM (inactive)
[42]
  GI50: 21.3 µM (inactive)
[43]
  GI50: 18.8 µM
[45]
  GI50: 15.4 µM (inactive)
[46]
  GI50: 19.8 µM (inactive)
[55]
  GI50: 19.7 µM (inactive)
[56]
  GI50: 17.8 µM (inactive)
[48]
  GI50: 18.2 µM (inactive)
[49]
  GI50: 19.9 µM (inactive)

## COc1cc2oc(-c3ccccc3)cc(=O)c2c(O)c1C
[1]
  GI50: > 100 µM (inactive)
[3]
  GI50: > 100 µM (inactive)
[57]
  GI50: > 100 µM (inactive)
[4]
  GI50: > 100 µM (inactive)
[5]
  GI50: > 100 µM (inactive)
[6]
  GI50: > 100 µM (inactive)
[50]
  GI50: > 100 µM (inactive)
[7]
  GI50: > 100 µM (inactive)
[8]
  GI50: > 100 µM (inactive)
[9]
  GI50: > 100 µM (inactive)
[10]
  GI50: > 100 µM (inactive)
[12]
  GI50: > 100 µM (inactive)
[13]
  GI50: > 100 µM (inactive)
[14]
  GI50: > 100 µM (inactive)
[51]
  GI50: 27.4 µM (inactive)
[15]
  GI50: > 100 µM (inactive)
[16]
  GI50: > 100 µM (inactive)
[17]
  GI50: > 100 µM (inactive)
[18]
  GI50: > 100 µM (inactive)
[52]
  GI50: > 100 µM (inactive)
[19]
  GI50: > 100 µM (inactive)
[20]
  GI50: > 100 µM (inactive)
[21]
  GI50: > 100 µM (inactive)
[22]
  GI50: > 100 µM (inactive)
[53]
  GI50: > 100 µM (inactive)
[23]
  GI50: > 100 µM (inactive)
[24]
  GI50: > 100 µM (inactive)
[25]
  GI50: > 100 µM (inactive)
[26]
  GI50: > 100 µM (inactive)
[27]
  GI50: > 100 µM (inactive)
[28]
  GI50: > 100 µM (inactive)
[29]
  GI50: > 100 µM (inactive)
[30]
  GI50: > 100 µM (inactive)
[31]
  GI50: > 100 µM (inactive)
[32]
  GI50: > 100 µM (inactive)
[33]
  GI50: > 100 µM (inactive)
[34]
  GI50: > 100 µM (inactive)
[35]
  GI50: > 100 µM (inactive)
[36]
  GI50: > 100 µM (inactive)
[54]
  GI50: > 100 µM (inactive)
[37]
  GI50: > 100 µM (inactive)
[38]
  GI50: > 100 µM (inactive)
[39]
  GI50: > 100 µM (inactive)
[40]
  GI50: > 100 µM (inactive)
[41]
  GI50: > 100 µM (inactive)
[42]
  GI50: > 100 µM (inactive)
[43]
  GI50: > 100 µM
[44]
  GI50: > 100 µM (inactive)
[45]
  GI50: > 100 µM (inactive)
[46]
  GI50: > 100 µM (inactive)
[47]
  GI50: > 100 µM (inactive)
[56]
  GI50: > 100 µM (inactive)
[48]
  GI50: > 100 µM (inactive)
[49]
  GI50: > 100 µM (inactive)

## Cc1cc(-c2ccc(/N=N/c3ccc4c(S(=O)(=O)O)cc(S(=O)(=O)O)c(N)c4c3O)c(C)c2)ccc1/N=N/c1ccc2c(S(=O)(=O)O)cc(S(=O)(=O)O)c(N)c2c1O [EVANS BLUE FREE ACID]
[2]
  GI50: > 77.3 µM (inactive)
[3]
  GI50: > 100 µM (inactive)
[4]
  GI50: > 100 µM (inactive)
[5]
  GI50: > 100 µM (inactive)
[7]
  GI50: > 100 µM (inactive)
[10]
  GI50: > 100 µM (inactive)
[11]
  GI50: > 95.5 µM (inactive)
[58]
  GI50: > 100 µM (inactive)
[12]
  GI50: > 100 µM (inactive)
[59]
  GI50: > 100 µM (inactive)
[14]
  GI50: > 100 µM (inactive)
[15]
  GI50: 77.3 µM (inactive)
[16]
  GI50: > 100 µM (inactive)
[17]
  GI50: > 100 µM (inactive)
[18]
  GI50: > 100 µM (inactive)
[52]
  GI50: > 100 µM (inactive)
[19]
  GI50: > 100 µM (inactive)
[20]
  GI50: 62.7 µM (inactive)
[24]
  GI50: > 100 µM (inactive)
[26]
  GI50: 59.2 µM (inactive)
[27]
  GI50: > 100 µM (inactive)
[28]
  GI50: > 100 µM (inactive)
[29]
  GI50: > 100 µM (inactive)
[30]
  GI50: > 100 µM (inactive)
[31]
  GI50: > 100 µM (inactive)
[34]
  GI50: > 76.2 µM (inactive)
[54]
  GI50: > 100 µM (inactive)
[37]
  GI50: > 100 µM (inactive)
[41]
  GI50: > 100 µM (inactive)
[42]
  GI50: > 100 µM (inactive)
[43]
  GI50: > 100 µM
[44]
  GI50: > 85.7 µM (inactive)
[46]
  GI50: > 100 µM (inactive)
[56]
  GI50: > 100 µM (inactive)
[48]
  GI50: > 100 µM (inactive)
[49]
  GI50: > 100 µM (inactive)

Reference: ChEMBL document CHEMBL1201862, “PubChem BioAssay data set” (2004)
